Where “and” joins values, the source holds several entries; their conditions need not be identical. Equal entries are not always repeated. Entries after “also recorded” stand apart in the source; their conditions may differ.
Legend:
[1] = DPPH radical scavenging assay; settings: for DPPH radical scavenging activity (in words): across tested concentrations 1 to 1000 μM
Method: (§1) The antioxidant properties of the compounds under study were examined using the 2,2-Diphenyl-1-picrylhydrazyl (DPPH) assay, following a well-established protocol. A DPPH solution was prepared at a concentration of 0.1 mM in methanol. […] To ensure proper reaction, the mixtures were kept in the dark and incubated at room temperature for 30 min. After incubation, the absorbance of each sample was measured at 517 nm using a UV-VIS spectrophotometer. Gallic acid was used as the reference standard, and methanol served as the blank control.
The ability of the compounds to scavenge free radicals was determined by observing the reduction of DPPH at 517 nm, with lower absorbance values indicating higher antioxidant activity. The half-maximal inhibitory concentration (IC50), defined as the concentration of the compound needed to neutralize 50% of the DPPH radicals, was calculated from the dose–response curve. All experiments were performed in triplicate, and the results are reported as the mean of three independent trials. This method is widely recognized for its reliability and reproducibility in evaluating the antioxidant potential of chemical compounds.

COX-2 = target: T1, COX-2 (Homo sapiens, UniProt P35354); test: Cyclooxygenase (COX-2) activity assay in HIEC-6 cell lysate; type: biochemical
T1 construct: endogenous in cells; host or cells: HIEC-6 cell lysate
T1 sequence (P35354 18-604): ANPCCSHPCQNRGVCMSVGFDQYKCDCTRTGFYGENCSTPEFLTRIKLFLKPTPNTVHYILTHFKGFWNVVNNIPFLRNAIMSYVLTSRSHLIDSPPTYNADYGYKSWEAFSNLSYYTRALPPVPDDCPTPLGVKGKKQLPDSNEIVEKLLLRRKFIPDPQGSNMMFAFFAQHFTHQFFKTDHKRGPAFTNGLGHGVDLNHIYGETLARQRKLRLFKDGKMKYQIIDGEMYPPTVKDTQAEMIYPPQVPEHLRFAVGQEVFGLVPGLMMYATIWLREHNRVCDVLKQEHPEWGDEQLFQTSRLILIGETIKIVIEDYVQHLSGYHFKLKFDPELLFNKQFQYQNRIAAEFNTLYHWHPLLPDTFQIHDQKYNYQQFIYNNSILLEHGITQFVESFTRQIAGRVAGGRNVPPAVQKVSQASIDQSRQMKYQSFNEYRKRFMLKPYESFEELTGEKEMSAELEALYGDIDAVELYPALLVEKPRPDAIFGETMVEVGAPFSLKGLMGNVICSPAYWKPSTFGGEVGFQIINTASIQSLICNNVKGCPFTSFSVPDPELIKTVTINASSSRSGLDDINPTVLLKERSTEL
Method: Cyclooxygenase (COX-2) activity assay was performed in HIEC-6 cells according to the manufacturer’s instructions (ab204699). Resorufin standards (0–20 pmol/well) were used to generate a calibration curve for quantifying sample concentrations. HIEC-6 cells were centrifuged at 500× g for 3 min and washed with PBS. The cell pellet was lysed in an ice-cold lysis buffer containing 10% Triton X-100 and a protease inhibitor cocktail in PBS for 5 min. The lysate was then centrifuged at 12,000× g for 3 min at 4 °C, and the supernatant was collected and kept on ice. Protein concentration in the supernatant was determined using a Bradford assay, with a bovine serum albumin standard curve (0–2000 µg/mL). […] This mixture was added to a 96-well plate, and the reaction was initiated by adding arachidonic acid (COX-2 substrate) dissolved in NaOH solution. The enzymatic reaction produced fluorescent resorufin dye, which was measured at excitation/emission wavelengths of λEx/Em = 535/587 nm.

[2] = target: Bovine Serum Albumin (BSA) (Bos taurus, UniProt P02769); test: Protein denaturation assay; type: biochemical; settings: at 100 nM and higher concentrations (range 1–1000 nM)
Method: The anti-inflammatory potential of the compounds was evaluated using a protein denaturation assay, a well-established method to assess the capacity of test substances to inhibit protein denaturation, a key marker of inflammation. […] After heating, the samples were allowed to cool to room temperature, and the turbidity of the solutions, indicative of protein precipitation, was measured spectrophotometrically at 660 nm. A reduction in turbidity corresponds to the inhibition of protein denaturation, reflecting the anti-inflammatory activity of the tested compounds.

CYP2D6 [3] = target: T2, CYP2D6 (Homo sapiens, UniProt P10635); test: Metabolism by cytochrome P450 2D6 (CypExpress), HPLC; type: in vitro ADME
T2 construct: purchased Sigma Aldrich C4982

CYP2D6 [4] = target: T2, CYP2D6; test: as above; type: in vitro ADME; settings: 4 h
Method: The enzymatic activity of cytochrome P450 2D6 (CYP2D6) was evaluated following the CypExpress protocol (C4982, Sigma Aldrich, Darmstadt, Germany). The reaction buffer consisted of 5 mM glucose-6-phosphate (G6P), 2 mM nicotinamide adenine dinucleotide phosphate (NADP+), and 3,4,5-TMBS prepared in PBS at concentrations of 1000 and 1500 µM. Diltiazem was used as a positive control. The reaction was initiated by adding CYP2D6, and the mixture was vortexed for 5 min. The samples were then incubated at 37 °C with gentle shaking at 100 rpm for 4 h. The reaction was terminated by adding acetonitrile, followed by centrifugation at 800 rpm for 10 min. The supernatant was collected and analyzed using HPLC.

[5] = DPPH assay on supernatant after CYP2D6 metabolism
Method: as §1
To further assess the scavenging activity of 3,4,5-TMBS metabolites, an antioxidant assay was conducted after 3 and 4 h following the metabolism. After both 3 h and 4 h reaction periods, the enzyme was separated, and the resulting supernatant was utilized for the DPPH assay. Findings regarding the antioxidant activity of 3,4,5-TMBS, post-metabolism, at these time points, in comparison to GA and 3,4,5-THBS at the same concentration, are illustrated in Figure 9.

T2 sequence (P10635 whole entry): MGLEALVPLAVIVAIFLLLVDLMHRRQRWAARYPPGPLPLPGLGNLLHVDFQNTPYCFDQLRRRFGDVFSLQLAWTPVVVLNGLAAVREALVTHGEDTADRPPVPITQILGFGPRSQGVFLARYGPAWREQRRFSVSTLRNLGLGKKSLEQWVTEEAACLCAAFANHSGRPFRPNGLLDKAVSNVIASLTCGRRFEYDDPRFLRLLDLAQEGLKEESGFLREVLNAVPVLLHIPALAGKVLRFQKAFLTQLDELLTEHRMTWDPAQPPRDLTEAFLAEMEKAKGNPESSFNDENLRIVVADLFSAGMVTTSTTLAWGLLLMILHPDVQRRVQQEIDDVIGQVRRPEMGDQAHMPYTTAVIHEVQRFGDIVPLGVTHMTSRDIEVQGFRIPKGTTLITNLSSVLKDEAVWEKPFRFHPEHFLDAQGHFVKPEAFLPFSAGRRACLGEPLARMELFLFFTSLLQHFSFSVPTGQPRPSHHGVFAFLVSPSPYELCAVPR
Bovine Serum Albumin (BSA), sequence (P02769 25-607): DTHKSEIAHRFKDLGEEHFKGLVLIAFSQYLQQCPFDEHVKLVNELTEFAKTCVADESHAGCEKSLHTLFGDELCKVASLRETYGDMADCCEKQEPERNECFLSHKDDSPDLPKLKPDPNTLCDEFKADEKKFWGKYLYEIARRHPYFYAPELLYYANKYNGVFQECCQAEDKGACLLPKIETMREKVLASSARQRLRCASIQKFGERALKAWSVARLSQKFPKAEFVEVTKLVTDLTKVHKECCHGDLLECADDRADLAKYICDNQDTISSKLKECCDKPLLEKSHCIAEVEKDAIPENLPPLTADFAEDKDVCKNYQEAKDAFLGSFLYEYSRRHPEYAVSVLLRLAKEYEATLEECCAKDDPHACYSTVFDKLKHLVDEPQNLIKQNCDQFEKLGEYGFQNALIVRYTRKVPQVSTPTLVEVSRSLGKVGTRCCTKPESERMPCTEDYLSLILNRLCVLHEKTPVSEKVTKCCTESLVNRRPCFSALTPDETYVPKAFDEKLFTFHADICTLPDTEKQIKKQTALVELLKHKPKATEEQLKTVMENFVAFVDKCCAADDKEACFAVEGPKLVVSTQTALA

| SMILES | EC50 [1] [µM] | DPPH radical scavenging activity ([1]; at 1000 µM) | ROS scavenging activity ([1]; at 1000 µM (abstract)) [%] | COX-2 inhibition compared to ibuprofen (COX-2; 1 µM) | COX-2 inhibition compared to ibuprofen (COX-2; 50 µM) | Anti-inflammatory activity (inhibition of protein denaturation) compared to ibuprofen [2] | Metabolism by CYP2D6 (concentration) (CYP2D6 [3]; 1000 µM, 1 h) [µM] | Metabolism by CYP2D6 (concentration) (CYP2D6 [3]; 1000 µM, 3 h) [µM] | Metabolism by CYP2D6 (concentration) (CYP2D6 [3]; 1500 µM, 1 h) [µM] | Metabolism by CYP2D6 (concentration) (CYP2D6 [3]; 1500 µM, 3 h) [µM] | Percentage metabolized by CYP2D6 (CYP2D6 [3]; 1500 µM, one-hour time point) | Metabolism by CYP2D6 (concentration) (CYP2D6 [4]; 1000 µM) [µM] | Metabolism by CYP2D6 (concentration) (CYP2D6 [4]; 1500 µM) [µM] | DPPH radical scavenging activity (in words) [1] | DPPH radical scavenging activity (in words) ([1]; listed as TMBS) | DPPH scavenging activity after CYP2D6 metabolism ([5]; 1000 µM, after four hours) [%] | DPPH scavenging activity after CYP2D6 metabolism ([5]; 1000 µM, after three hours) [%] | DPPH scavenging activity after CYP2D6 metabolism ([5]; 2000 µM, after three and four hours) |
| --- | --- | --- | --- | --- | --- | --- | --- | --- | --- | --- | --- | --- | --- | --- | --- | --- | --- | --- |
| NS(=O)(=O)c1cc(O)c(O)c(O)c1 [3,4,5-THBS, 3,4,5-trihydroxybenzenesulfonamide] | ~27 | exceeding 90% | 93 | inhibition levels similar to ibuprofen | inhibition levels similar to ibuprofen |  |  |  |  |  |  |  |  |  |  |  |  |  |
| COc1cc(S(N)(=O)=O)cc(OC)c1OC [3,4,5-TMBS, 3,4,5-trimethoxybenzenesulfonamide] |  |  |  | no significant difference in COX-2 inhibition relative to ibuprofen | high COX-2 inhibition; also recorded: highly significant increase in inhibition | significant increase in anti-inflammatory activity | 754 ± 35.5 | 860.62 ± 0.71 | 984 ± 161 | 1241 ± 12.2 | 65% and 65.5% | 833 ± 54.9 | 1248 ± 5.02 | negligible effects | minimal scavenging activity | 45 | 35 | up to 61% |

From PMC12024234, “Antioxidant, Anti-Inflammatory, and Oral Bioavailability of Novel Sulfonamide Derivatives of Gallic Acid” (Antioxidants, 2025)
